This note sets out measurements from patent publication US8835115B2, “ABCB1 genotyping to predict microtubule-stabilizing-agent-induced toxicity” (The United States of America as represented by the …, priority 2006, dated 2014).

In data set [1] the test system is men with androgen-independent prostate cancer. Nature of the data set: Clinical grade of neutropenia in docetaxel-treated patients by ABCB1 genotype. The data set is classed as in vivo, human. The procedure:
(§1) ABCB1 genotypes were evaluated in patients from a trial involving 73 men with androgen-independent prostate cancer that were treated with either docetaxel alone or docetaxel in combination with thalidomide. Patients were administered docetaxel intravenously (30 mg/m2) over 1 hour every week for 3 consecutive weeks (n=23). Some patients additionally received 200 mg of thalidomide orally each day (n=50). Toxicity was defined by Cancer Therapy Evaluation Program/National Cancer Institute Common Toxicity Criteria (version 2.0) and patients were evaluated for symptoms of toxicity weekly.

For data set [2] the test system is unchanged. Briefly: Docetaxel-induced peripheral neuropathy by ABCB1 2677 genotype. Particulars: docetaxel 30 mg/m2 iv weekly for 3 consecutive weeks. The data set is classed as in vivo, human. As for the experimental part:
as §1

Data set [3] relates to subjects with locally advanced or metastatic cancer. Briefly: Cumulative peripheral neuropathy (clinical score >3) during weekly paclitaxel therapy by ABCB1 genotype. In kind it is in vivo, human. Particulars: weekly paclitaxel 100 mg/m^2, 12 weeks. The text has this:
Twenty-six subjects were examined.
Prior to therapy, and if possible after six and twelve weeks of therapy, these examinations were supplemented by the evaluation of the peripheral neuropathy score, clinical chemistries (serum creatinine, transaminases, alkaline phosphatase, and bilirubin), electrocardiogram analysis and performance status. For the assessment of neurotoxicity a standardized clinical peripheral neuropathy scoring system was used, which included questioning subjects' symptoms, requiring a clinical examination based on a tuning fork test, and an evaluation of strength and peripheral reflexes. This individual clinical score could range from 0 (best) to 12 (worst) points, and based on the inclusion criteria of this trial, peripheral neuropathy was defined as an event when the score exceeded a value of 3 for the first time. A score had to be obtained, at a minimum, prior to and after six and twelve weeks of therapy in order for subjects to be included.
The probability of development of a peripheral neuropathy during paclitaxel therapy as a function of time, according to various genotypes, was analyzed using the Kaplan-Meier method. Statistical significance of the differences between Kaplan-Meier curves was determined using an exact log rank test. […]

For data set [4] the test system is unchanged. The following applies: both, human, in vivo. The procedure:
(§2) Twenty-six subjects were examined. There were 14 male subjects and 12 female subjects with a median age of 59.5 years (range: 42-72). The subjects were treated with weekly one- or three-hour paclitaxel infusions. All subjects had histologically proven, locally advanced or metastatic cancer, for which paclitaxel as monotherapy was a therapeutic option.
(§3) Paclitaxel (30 mg) formulated in a mixture of Cremophor and absolute:ethanol (1:1, vol/vol) (Bristol Myers Squibb, Munich, Germany) was diluted in 500 mL of 5% (weight/vol) dextrose in water and administered to subjects via a peripheral or central venous catheter using a motor-driven programmable infusion pump. Eligible subjects were randomized between a one hour and three hour infusion duration to receive a total of six weekly intravenous infusions of paclitaxel at a dose of 100 mg/m^2. After six weeks of therapy (defined as one cycle) response was evaluated bi-dimensionally, usually by computed tomography. Subjects with a stable disease, partial response or complete response after one cycle received a second cycle, provided toxic effects were not prohibitive.
All data are reported as median values with the associated 95% CI, unless specified otherwise.

Data set [5] can be described thus: Paclitaxel pharmacokinetics in plasma of treated subjects by ABCB1 genotype. The following applies: for AUCp, area under the curve of total paclitaxel, Median (95% CI) / AUCu, area under the curve of unbound paclitaxel, Median (95% CI) / T > 0.05 μM, duration of total plasma concentration of paclitaxel exceeding 0.05 μM, Median (95% CI): 100 mg/m^2 iv infusion, first administration. The procedure: as §2, §3
Blood samples were obtained from the subjects described in Example 1 during the first paclitaxel administration at baseline and at serial time points during and after infusion. Concentrations of total paclitaxel in plasma were determined by a validated method based on reversed-phase high performance liquid chromatography with ultraviolet detection, while unbound paclitaxel plasma concentrations were determined by micro-equilibrium dialysis using a [G-^3H]paclitaxel tracer. Pertinent pharmacokinetic parameters were calculated by non-compartmental methods using WinNonlin® version 5.0 (Pharsight, Mountain View, Calif., USA).
All data are reported as median values with the associated 95% CI, unless specified otherwise. Interindividual pharmacokinetic variability was assessed as the coefficient of variation, and expressed as a percentage. The associations of the variant genotypes with individual pharmacokinetic parameters were evaluated statistically with the nonparametric Kruskal-Wallis test. All P values are two-tailed, and those less than or equal to 0.05 were considered to reflect statistically significant results.

The mark [6] stands for this setting: genotype 2677TT + 3435TT, 11 patients in total.
The mark [7] stands for this setting: other ABCB1 genotypes, 39 patients in total.
The mark [8] stands for this setting: of the 15 subjects wild-type for ABCB1 2677G>T/A.
The mark [9] stands for this setting: subjects carrying at least one variant allele at ABCB1 2677.
Where [10] appears, read: ABCB1 1236C>T heterozygous (N=17).
[11] abbreviates: ABCB1 1236C>T variant (N=4), range quoted instead of 95% CI.
Where [12] appears, read: ABCB1 1236C>T wild-type (N=5), range quoted instead of 95% CI.
Where [13] appears, read: ABCB1 2677G>T heterozygous (N=13).
Where [14] appears, read: ABCB1 2677G>T wild-type (N=2), range quoted instead of 95% CI.
The mark [15] stands for this setting: ABCB1 3435C>T heterozygous (N=14).
Where [16] appears, read: ABCB1 3435C>T wild-type (N=4), range quoted instead of 95% CI.

SMILES strings stand for the structures. Marks after values point to notes of the source that are not given here.

Turning to `CC(=O)O[C@@]12CO[C@@H]1C[C@H](O)[C@@]1(C)C(=O)[C@H](O)C3=C(C)[C@@H](OC(=O)[C@H](O)[C@@H](NC(=O)OC(C)(C)C)c4ccccc4)C[C@@](O)([C@@H](OC(=O)c4ccccc4)[C@H]21)C3(C)C` [docetaxel, (2R,3S)—N-carboxy-3-phenylisoserine,N-tert-butyl ester, 13-ester with 5β-20-epoxy-1,2α,4,7β,10β,13α-hexahydroxytax-11-en-9-one 4-acetate 2-benzoate, trihydrate], in data set [1] (setting [6]), the “# Patients with Clinical Grade of Neutropenia, Grade 0” value was 8 patients; the “# Patients with Clinical Grade of Neutropenia, Grade 2” value is recorded as 0 patients; the “# Patients with Clinical Grade of Neutropenia, Grade 3” value was 3 patients. Besides, in data set [1] (setting [7]), the “# Patients with Clinical Grade of Neutropenia, Grade 0” value is listed as 35 patients; the “# Patients with Clinical Grade of Neutropenia, Grade 2” value worked out at 3 patients; the “# Patients with Clinical Grade of Neutropenia, Grade 3” value was 1 patients. In addition, in data set [2] (setting [8]), the “subjects who developed peripheral neuropathy during the observation period” value was 11 subjects and the “subjects who did not develop peripheral neuropathy during the observation period” value was 4 subjects. Besides, in data set [2] (setting [9]), the “subjects who developed peripheral neuropathy during the observation period” value is reported as 32 of 35 and the “subjects who did not develop peripheral neuropathy during the observation period” value is listed as 3 of 35.
In the case of `CC(=O)O[C@H]1C(=O)[C@@]2(C)[C@H]([C@H](OC(=O)c3ccccc3)[C@]3(O)C[C@H](OC(=O)[C@H](O)[C@@H](NC(=O)c4ccccc4)c4ccccc4)C(C)=C1C3(C)C)[C@]1(OC(C)=O)CO[C@@H]1C[C@@H]2O` [paclitaxel, 5β,20-Epoxy-1,2α,4,7β,10β,13α-hexahydroxytax-11-en-9-one 4,10-diacetate 2-benzoate 13-ester with (2R,3S)—N-benzoyl-3-phenylisoserine], in data set [3] (four subjects wild-type for ABCB1 3435C>T (3435CC)), the “development of peripheral neuropathy during the observation period” value is listed as “did not develop peripheral neuropathy”. For the same molecule, in data set [3] (subjects carrying at least one variant allele at ABCB1 3435 (CT or TT)), the “subjects who developed peripheral neuropathy” value is 17 of 18. Besides, the “fold greater percent decrease in neutrophil count at nadir, double variant versus rest of the population” value in data set [4] is “approximately 1.5 fold”. In addition, in data set [5] (26 subjects, ABCB1 1236C>T, 2677G>T, 3435C>T, Kruskal-Wallis test), the “association of ABCB1 genotypes with paclitaxel pharmacokinetic parameters” value is reported as “none of the studied ABCB1 genotypes were associated with interindividual differences”. The “AUCp, area under the curve of total paclitaxel, Median (95% CI)” value in data set [5] (setting [10]) was 5264 (3879-6235) (ng/mL) × hr; in data set [5] (setting [11]), 3547 (2309-5600) (ng/mL) × hr; in data set [5] (setting [12]) it was 4657 (2909-9916) (ng/mL) × hr; in data set [5] (setting [13]) it was 5146 (3776-7762) (ng/mL) × hr; in data set [5] (ABCB1 2677G>T variant (N=11)) it was 4203 (2309-5600) (ng/mL) × hr; in data set [5] (setting [14]), 3348 (2909-3787) (ng/mL) × hr. For the same molecule, the entries for the “AUCp, area under the curve of total paclitaxel, Median (95% CI)” value in data set [5] (setting [15]), in data set [5] (ABCB1 3435C>T variant (N=8)) and in data set [5] (setting [16]) were 5485 (3787-6344) (ng/mL) × hr, 3656 (2259-5600) (ng/mL) × hr and 4534 (2909-5146) (ng/mL) × hr, respectively. Also, the “AUCu, area under the curve of unbound paclitaxel, Median (95% CI)” value in data set [5] (setting [10]) is 470 (445-519) (ng/mL) × hrs; in data set [5] (setting [11]), 407 (362-522) (ng/mL) × hrs; in data set [5] (setting [13]), 482 (371-641) (ng/mL) × hrs; in data set [5] (ABCB1 2677G>T variant (N=11)), 445 (362-516) (ng/mL) × hrs; in data set [5] (setting [14]), 540 (507-572) (ng/mL) × hrs; in data set [5] (setting [15]), 512 (432-523) (ng/mL) × hrs. Besides, the “AUCu, area under the curve of unbound paclitaxel, Median (95% CI)” value in data set [5] (ABCB1 3435C>T variant (N=8)) is reported as 448 (362-522) (ng/mL) × hrs; in data set [5] (setting [16]), 420 (313-572) (ng/mL) × hrs. The “T > 0.05 μM, duration of total plasma concentration of paclitaxel exceeding 0.05 μM, Median (95% CI)” value in data set [5] (ABCB1 1236C>T heterozygous (N=17, one patient without data)) is given as 15.6 (9.3-19.3)* hours; in data set [5] (setting [11]), 15.6 (8.8-24.9) hours; in data set [5] (setting [12]), 20.3 (8.8-34.2) hours; in data set [5] (ABCB1 2677G>T heterozygous (N=13, one patient without data)), 17.3 (9.6-20.7)* hours; in data set [5] (ABCB1 2677G>T variant (N=11)), 12.6 (8.8-19.8) hours; in data set [5] (setting [14]), 15.1 (8.8-21.3) hours. The “T > 0.05 μM, duration of total plasma concentration of paclitaxel exceeding 0.05 μM, Median (95% CI)” value in data set [5] (ABCB1 3435C>T heterozygous (N=14, one patient without data)) is given as 19.8 (10.5-21.3)* hours; in data set [5] (ABCB1 3435C>T variant (N=8)), 13.7 (8.7-18.9) hours.
